Assay results taken from patent US4446312A, “C-β-D-Xylopyranoside series compounds” (Seikagaku Kogyo Co., Ltd., priority 1980, dated 1984).
Where two headings read alike, the source gives them in different places.

How the values were obtained:
[1] = Acute toxicity by oral or intraperitoneal administration to ddY mice; conditions: mouse, in vivo, 7 days, Litchfield-Wilcoxon
Experimental: The acute toxicity of the compound according to this invention was determined by forced oral or intraperitoneal administration thereof to ddY mice.
To prepare each specimen to be administered, a predetermined amount of each compound shown in Table 1 was dissolved in a physiological saline or suspended in a 0.2% solution of carboxymethylcellulose in a physiological saline. Each specimen was administered orally to a ddY mouse via its stomach tube or injected intraperitoneally.

[2] = test system: Sarcoma-180; assay: Activity against a transplantable cancer, Sarcoma-180; type: in vivo, ICR-JCL mice; conditions: 100 mg/Kg ip once a day for 10 days, starting 24 hrs. after inoculation
Experimental: Sarcoma-180 cells (1×10^6 cells) were inoculated subcutaneously into the back skin of each of ICR-JCL mice.
Chemotherapy was given intraperitoneally 24 hrs. after inoculation and performed once a day for 10 days. Each specimen to be administered was prepared by dissolving or suspending 30 mg of each compound according to this invention in 1 ml of a pysiological saline or in 1 ml of a 0.2% solution of carboxymethylcellulose in a physiological saline, respectively.
All the solutions and the suspensions thus prepared were injected at a volume of 0.1 ml as a single dose (100 mg/Kg).
The inhibition ratio (%) was calculated according to the following equation: […]
wherein T represents the mean weight of the tumor Sarcoma-180 in a tested group of mice; and C represents the mean weight of the tumor in a control group of mice.

[3] = test system: synthesis of chondroitin sulfate (glycosaminoglycan) in epiphysial cartilages; assay: Effect on synthesis of chondroitin sulfate (35S labelled glycosaminoglycan) in epiphysial cartilage; type: cell-based, chick embryos
From the text: In each Figure, the vertical axis denotes the amount of ^35 S labelled chondroitin sulfate (^35 S cpm×10^-4 /μmol·uronic acid), and the horizontal axis denotes the concentration (mM) of each xylopyranoside compound in the culture medium, and
x x: Total uptake amount of ^35 S labelled chondroitin sulfate,
: Amount of ^35 S labelled chondroitin sulfate in culture medium, and
: Amount of ^35 S labelled chondroitin sulfate in tissue.
Epiphysial cartilages were taken from chick embryos aged 12 days in the Tyrode's medium under ice-cooling, and excess tissues were removed therefrom. To 150 mg of cartilages corresponding to five embryos, 5 ml of BGJb [an entirely synthetic culture medium prepared according to a recipe of GIBCO (Grand Island Biological Company)] was added, followed by pre-incubation at a temperature of 37° C. After replacing the culture medium, further 1 ml of BGJb and 5μCi Na2^35 SO4 were added, and the culture system was kept at 37° C. for 3 hours. The culture medium was then replaced by a fresh chase medium containing no isotope. After keeping the culture system at 37° C. for 1 hour, the culture medium was separated from the tissues. To study the effects of the xyloside compound on the synthesis of glycosaminoglycan, the xyloside compound was added in the predetermined concentration to the pre-incubation and incubation media.
After the incubation, the labeled medium containing Na2^35 SO4 was combined with the chase medium. Pronase-P was added thereto in a 0.5 M tris-HCl buffer solution (pH 8.0), and the resulting mixture was digested at 50° C. for 16 hours. The digested reaction mixture was then subjected to gel filtration through a column (1.5×14 cm) packed with Bio-Gel P-2 (available from Bio-Rad Company) using a 0.2 M ammonium formate solution as elute. In this way, the Vo fraction was collected and was then freeze-dried to give crude glycosaminoglycan.
On the other hand, ice-cooled 4 M guanidine hydrochloride was added to the tissues which were previously separated from the culture medium. The resulting mixture was left to stand overnight at a temperature of -20° C., and then homogenized. The obtained homogenate was left to stand overnight at room temperature and centrifuged at a speed of 8,500 rpm to obtain a supernatant. To the obtained liquid, water was added in an amount threefold that of the supernatant. Then, a 95% ethyl alcohol (containing 1.3% of potassium acetate) was added to the resulting mixture in an amount threefold that of the mixture to obtain a precipitate. This procedure was repeated twice, and the combined precipitates were dried in a desiccator. The obtained precipitates were dissolved in a 0.02 M tris-HCl buffer solution (pH 8.0) and digested with Pronase-P (trade name) (available from Kaken Kagaku Co., Ltd.) in the manner similar to the culture medium described above, thereby obtaining crude glycosaminoglycan.
As the xyloside compound, conventional O-paranitrophenyl-β-D-xylopyranoside, and two compounds according to the present invention viz. C-n-butyl-β-D-xylopyranoside and C-ethyl-β-D-xylopyranoside were used. The effects of these xyloside compounds on the total amount of ^35 S labelled glycosaminoglycan synthesized (^35 S uptake amount), the amount thereof liberated to the culture medium and the amount thereof remaining in the tissues were as shown in FIGS. 1 to 3.

[4] = ip, intraperitoneal, read-out: LD50 (ip)

| Compound | LD50 at 168 h [1, 4] [mg/kg] | LD50 at 168 h ([1]; oral, read-out: LD50 (po)) [mg/kg] | I.R. (inhibition ratio, tumor weight) [2] [%] | Effectiveness as initiator for the synthesis of chondroitin sulfate [3] | 35S uptake of glycosaminoglycan ([3]; 1 mM) | activity at 1000 µM ([3]; Gallus gallus, 1 mM, read-out: 35S labelled glycosaminoglycan liberated to the culture medium) [%] | fold induction at 1000 µM ([3]; Gallus gallus, 1 mM, read-out: 35S uptake of glycosaminoglycan relative to control) | activity at 1000 µM ([3]; Gallus gallus, 1 mM, read-out: Amount of 35S labelled glycosaminoglycan remaining in the tissues) [%] | 35S uptake of glycosaminoglycan, concentration dependence ([3]; concentration rising from 0.05 mM to 1.0 mM) |
| --- | --- | --- | --- | --- | --- | --- | --- | --- | --- |
| CC[C@@H]1OC[C@@H](O)[C@H](O)[C@H]1O [C--Ethyl-β-D-xylopyranoside, C-Ethyl-β-D-xylopyranoside] | 2400 | 6900 | 52.8 | – | – | – | – | – | – |
| O=[N+]([O-])c1ccc(O[C@@H]2OC[C@@H](O)[C@H](O)[C@H]2O)cc1 [O-paranitrophenyl-β-D-xylopyranoside] | – | – | – | extremely effective | 40,800 count per minute (cpm) | 95 | 2.35 | 11 | increased |
| CCCC[C@@H]1OC[C@@H](O)[C@H](O)[C@H]1O [C--n-Butyl-β-D-xylopyranoside, C-n-Butyl-β-D-xylopyranoside] | 2400 | 5800 | 69.2 | – | – | – | – | – | – |
